Experimental data published in publication PMC9917560, “Design, Synthesis and Antimicrobial Evaluation of New N-(1-Hydroxy-1,3-dihydrobenzo[c][1,2]oxaborol-6-yl)(hetero)aryl-2-carboxamides as Potential Inhibitors of Mycobacterial Leucyl-tRNA Synthetase” (International Journal of Molecular Sciences, 2023).
Converted amounts (≈) assume the structure as drawn. Read-outs that look alike come from different tables or passages of the source. Marks after values point to notes of the source that are not given here.

Key:
[1] = tested on: Mycobacterium tuberculosis H37Rv CNCTC My 331/88 (ATCC 27294); assay: Microplate Alamar Blue assay vs Mtb H37Rv; type: cell-based; settings: Mycobacterium tuberculosis, pH 6.6, MABA, Middlebrook 7H9 pH 6.6, recalculated from µg/mL; read-out: MIC Mtb H37Rv
[2] = tested on: Mtb IZAK (MDR clinical isolate); assay: microbe, parasite or virus in culture; type: cell-based; settings: Mycobacterium tuberculosis, read-out: MIC Mtb IZAK
[3] = tested on: Mtb MATI (MDR clinical isolate); assay: microbe, parasite or virus in culture; type: cell-based; settings: Mycobacterium tuberculosis, read-out: MIC Mtb MATI
Mtb laboratory ID IZAK = type: cell-based, Mycobacterium tuberculosis; settings: strain IZAK; for Susceptibility: CLSI breakpoints 2020
Mtb laboratory ID MATI = type: cell-based, Mycobacterium tuberculosis; settings: strain MATI; for Concentration: CLSI 2021; for Susceptibility: CLSI breakpoints 2021
Mtb H37Rv = tested on: Mtb H37Rv; parameters: method as in PMID 27503647; settings: compounds synthesized and evaluated by Palencia et al. ref [13]; cited from earlier work
Mtb LeuRS = tested on: Mtb LeuRS; parameters: method as in PMID 27503647, PMID 28953378; settings: ref [13],[14]; read-out: IC50 against LeuRS; cited from earlier work
[4] = tested on: Mycobacterium tuberculosis H37Ra ITM-M006710 (ATCC 9431); assay: Antimycobacterial microdilution (resazurin) vs Mtb H37Ra; type: cell-based; settings: Middlebrook 7H9, resazurin, recalculated from µg/mL, read-out: MIC Mtb H37Ra
[5] = tested on: Mycobacterium kansasii DSM 44,162 (ATCC 12478); assay: Antimycobacterial microdilution (resazurin) vs M. kansasii; type: cell-based; settings: Middlebrook 7H9, resazurin, read-out: MIC M. kansasii
[6] = tested on: Mycobacterium avium DSM 44,156 (ATCC 25291); assay: Antimycobacterial microdilution (resazurin) vs M. avium; type: cell-based; settings: Mycobacterium avium, Middlebrook 7H9, resazurin; read-out: MIC M. avium
[7] = tested on: Mycolicibacterium aurum DSM 43,999 (ATCC 23366); assay: Antimycobacterial microdilution (resazurin) vs M. aurum; type: cell-based; settings: Middlebrook 7H9, resazurin, read-out: MIC M. aurum
[8] = tested on: Mycolicibacterium smegmatis DSM 43,465 (ATCC 607); assay: Antimycobacterial microdilution (resazurin) vs M. smegmatis; type: cell-based; settings: Middlebrook 7H9, resazurin, read-out: MIC M. smeg.
[9] = tested on: Staphylococcus aureus subsp. aureus CCM 4223 (ATCC 29213); assay: Antibacterial microdilution broth (EUCAST); type: cell-based; settings: read-out: MIC Staphylococcus aureus subsp. aureus
[10] = tested on: methicillin-resistant Staphylococcus aureus subsp. aureus (MRSA) CCM 4750 (ATCC 43300); assay: microbe, parasite or virus in culture; type: cell-based; settings: read-out: MIC Methicillin-resistant Staphylococcus aureus subsp. aureus
[11] = tested on: Staphylococcus epidermidis CCM 4418 (ATCC 12228); assay: Antibacterial microdilution broth (EUCAST); type: cell-based; settings: read-out: MIC Staphylococcus epidermidis
[12] = tested on: Enterococcus faecalis CCM 4224 (ATCC 29212); assay: Antibacterial microdilution broth (EUCAST); type: cell-based; settings: read-out: MIC Enterococcus faecalis
[13] = tested on: Escherichia coli CCM 3954 (ATCC 25922); assay: Antibacterial microdilution broth (EUCAST); type: cell-based; settings: Escherichia coli, read-out: MIC Escherichia coli
[14] = tested on: Klebsiella pneumoniae CCM 4415 (ATCC 10031); assay: Antibacterial microdilution broth (EUCAST); type: cell-based; settings: Klebsiella pneumoniae, read-out: MIC Klebsiella pneumoniae
[15] = tested on: Acinetobacter baumannii DSM 30007 (ATCC 19606); assay: Antibacterial microdilution broth (EUCAST); type: cell-based; settings: read-out: MIC Acinetobacter baumannii
[16] = tested on: Pseudomonas aeruginosa CCM 3955 (ATCC 27853); assay: Antibacterial microdilution broth (EUCAST); type: cell-based; settings: read-out: MIC Pseudomonas aeruginosa
[17] = tested on: Candida albicans CCM 8320 (ATCC 24433); assay: Antifungal microdilution broth (EUCAST); type: cell-based; settings: Candida albicans, read-out: MIC Candida albicans
[18] = tested on: Candida krusei CCM 8271 (ATCC 6258); assay: Antifungal microdilution broth (EUCAST); type: cell-based; settings: Pichia kudriavzevii, read-out: MIC Candida krusei
[19] = tested on: Candida parapsilosis CCM 8260 (ATCC 22019); assay: Antifungal microdilution broth (EUCAST); type: cell-based; settings: Lodderomyces parapsilosis, read-out: MIC Candida parapsilosis
[20] = tested on: Candida tropicalis CCM 8264 (ATCC 750); assay: Antifungal microdilution broth (EUCAST); type: cell-based; settings: read-out: MIC Candida tropicalis
[21] = tested on: Aspergillus fumigatus ATCC 204305; assay: Antifungal microdilution broth (EUCAST); type: cell-based; settings: Aspergillus fumigatus, ATCC204305, read-out: MIC Aspergillus fumigatus
[22] = tested on: Aspergillus flavus CCM 8363; assay: Antifungal microdilution broth (EUCAST); type: cell-based; settings: Aspergillus flavus, CCM8363, read-out: MIC Aspergillus flavus
[23] = tested on: Lichtheimia corymbifera CCM 8077; assay: Antifungal microdilution broth (EUCAST); type: cell-based; settings: Lichtheimia corymbifera, CCM8077, read-out: MIC Lichtheimia corymbifera
[24] = tested on: Trichophyton interdigitale CCM 8377 (ATCC 9533); assay: Antifungal microdilution broth (EUCAST); type: cell-based; settings: Trichophyton interdigitale, read-out: MIC Trichophyton interdigitale
HepG2 cell line = assay: Cytotoxicity screening, CellTiter 96 assay; settings: Homo sapiens, HepG2, 24 h, read-out: IC50 HepG2

For `CC[C@@H](CO)NCCN[C@@H](CC)CO` [EMB, ethambutol], which MIC [1] is on record?
Its MIC is 1.91 µM (≈ 0.39 µg/mL).

And the MIC [2]?
Its MIC is 7.64 µM (≈ 1.56 µg/mL).

And the MIC [3]?
The MIC was 7.64 µM (≈ 1.56 µg/mL).

And the Concentration (Mtb laboratory ID IZAK; CLSI 2020)?
The Concentration was 2.45 µM.

And the Susceptibility (Mtb laboratory ID IZAK)?
The Susceptibility was “sensitive”.

What about the Concentration (Mtb laboratory ID MATI) of the same molecule?
Its Concentration is 2.45 µM.

What about the Susceptibility (Mtb laboratory ID MATI) of the same molecule?
Its Susceptibility is “sensitive”.

With “3-aminomethylbenzoxaborole [Compound C00022]” as the molecule, how does the “MIC Mtb H37Rv” value (Mtb H37Rv) read?
Its value is 11.04 * µM.

Which “MIC Mtb H37Rv” value (Mtb H37Rv) does the source give for `OB1OCc2ccccc21` [Compound C00021, (3H)-Benzo[c][1,2]oxaborol-1-ol] here?
Its value is 55.99 * µM.

With `NC[C@H]1OB(O)c2c(OCCO)ccc(Cl)c21` [GSK656, (S)-3-(Aminomethyl)-4-chloro-7-(2hydroxyethoxy)benzo c 1,2 oxaborol-1(3 H)-ol] as the molecule, how does the IC50 (Mtb LeuRS) read?
Its IC50 is 0.2 µM.

Which results are given for `O=C(Nc1ccc2c(c1)B(O)OC2)c1cncc(Cl)n1` [Compound 4, 6-chloro-N-(1-hydroxy-1,3-dihydrobenzo[c][1,2]oxaborol-6-yl)pyrazine-2-carboxamide]?
MIC [4]: 108 µM (≈ 31.3 µg/mL); MIC [1]: 86.4 µM (≈ 25 µg/mL); MIC [5]: 27 µM (≈ 7.81 µg/mL); MIC [6]: 27 µM (≈ 7.81 µg/mL); MIC [7]: 13.5 µM (≈ 3.91 µg/mL); MIC [8]: 27 µM (≈ 7.81 µg/mL); MIC [2]: 86.4 µM (≈ 25 µg/mL); MIC [3]: 86.4 µM (≈ 25 µg/mL); MIC ([9]; 24h incubation): 125 µM (≈ 36.2 µg/mL); MIC ([9]; 48h incubation): 125 µM (≈ 36.2 µg/mL); MIC ([10]; 24 h): 250 µM (≈ 72.4 µg/mL); MIC ([10]; 48 h): 250 µM (≈ 72.4 µg/mL); MIC ([11]; 24h incubation): 500 µM (≈ 145 µg/mL); MIC ([11]; 48h incubation): 500 µM (≈ 145 µg/mL); MIC ([12]; 24h incubation): > 500 µM; MIC ([12]; 48h incubation): > 500 µM; MIC ([13]; 24h incubation): > 500 µM; MIC ([13]; 48h incubation): > 500 µM; MIC ([14]; 24h incubation): > 500 µM; MIC ([14]; 48h incubation): > 500 µM; MIC ([15]; 24h incubation): > 500 µM; MIC ([15]; 48h incubation): > 500 µM; MIC ([16]; 24h incubation): > 500 µM; MIC ([16]; 48h incubation): > 500 µM; MIC ([17]; 24h incubation): > 500 µM; MIC ([17]; 48h incubation): > 500 µM; MIC ([18]; 24h incubation): > 500 µM; MIC ([18]; 48h incubation): > 500 µM; MIC ([19]; 24h incubation): > 500 µM; MIC ([19]; 48h incubation): > 500 µM; MIC ([20]; 24h incubation): > 500 µM; MIC ([20]; 48h incubation): > 500 µM; MIC ([21]; 24h incubation): > 500 µM; MIC ([21]; 48h incubation): > 500 µM; MIC ([22]; 24h incubation): > 500 µM; MIC ([22]; 48h incubation): > 500 µM; MIC ([23]; 24h incubation): > 500 µM; MIC ([23]; 48h incubation): > 500 µM; MIC ([24]; 72h incubation): > 500 µM; MIC ([24]; 120h incubation): > 500 µM; melting point: 250.9 to 252.4 °C; IC50 (HepG2 cell line): > 1000 µM

Which MIC [4] does the source give for `NNC(=O)c1ccncc1` [INH, isoniazid, reference compound] here?
Its MIC is 3.65 µM (≈ 0.501 µg/mL).

And the MIC [1]?
The MIC was 2.84 µM (≈ 0.389 µg/mL).

What about the MIC [5] of the same molecule?
The MIC was 45.6 µM (≈ 6.25 µg/mL).

What about the MIC [6] of the same molecule?
Its MIC is 7290 µM (≈ 1000 µg/mL).

What about the MIC [7] of the same molecule?
The MIC was 28.5 µM (≈ 3.91 µg/mL).

And the MIC [8]?
Its MIC is 228 µM (≈ 31.3 µg/mL).

And the MIC [2]?
The MIC was 91.2 µM (≈ 12.5 µg/mL).

What about the MIC [3] of the same molecule?
The MIC was greater than 91.2 µM.

What about the Susceptibility (Mtb laboratory ID IZAK) of the same molecule?
Its Susceptibility is “resistant”.

What about the Concentration (Mtb laboratory ID MATI) of the same molecule?
Its Concentration is greater than 58.33 µM.

And the Susceptibility (Mtb laboratory ID MATI)?
Its Susceptibility is “resistant”.
